Results on one sequence are retold here after patent publication US8653233B2, “Compositions and methods for preventing or treating cancer” (University of Nebraska Medical Center, priority 2003, dated 2014).

The series has as its system Panc02.MUC1 tumor cells. The series can be described thus: MUC1 cytoplasmic tail peptide vaccination and Panc02.MUC1 tumor challenge.

Where no end group is shown, it is not given here.

Regarding “CQCRRKNYGQLDIFPARDTYHPMSEYPTYH (cysteine pairing not given here) [SEQ ID NO:47]”, the survival result (MUC1.Tg mice, three s.c. vaccinations at seven day intervals, Panc02.MUC1 challenge 10 days after final, vs control peptide or nonvaccinated, p<0.05) is “significant increase in survival”. The autoimmunity in organs result (necropsy and histology, vaccinated MUC1.Tg mice challenged with Panc02.MUC1) was “no evidence of autoimmunity”.
